Laboratory results published in ChEMBL document CHEMBL4419180, “Compositions and methods for treating g protein coupled receptor mediated conditions” (2018).
The source made the active and inactive calls. The calls are words filed in the database; no cut-off is given here. Non-standard residues stand in square brackets, D forms with d. Residues, ends and D or L forms follow the SMILES beside them. *: point of attachment. Boc = CC(C)(C)OC(=O)*; OBn = c1ccc(CO*)cc1; For = O=C*

How the values were obtained:
Mus musculus [1] = assay: Suppression of bilirubin-induced pruritus in mouse assessed as reduction in scratching bouts in 30 mins at 0.25 mg/kg co-injected with bilirubin; assay type: functional, organism-based
Mus musculus [2] = assay: Suppression of chloroquine-induced pruritus in mouse assessed as reduction in scratching bouts in 30 mins at 1 mg/kg co-injected with chloroquine; assay type: functional, organism-based
Mus musculus [3] = assay: Suppression of ANIT-induced cholestatic pruritus in mouse assessed as reduction in scratching bouts in 30 mins at 1 mg/kg, ip 30 mins before behavioral analysis; assay type: functional, organism-based
Mus musculus [4] = assay: Suppression of ANIT-induced cholestatic liver injury in mouse assessed as effect on total bilirubin at 1 mg/kg, ip; assay type: functional, organism-based
Mus musculus [5] = assay: Suppression of ANIT-induced cholestatic liver injury in mouse assessed as effect on ALT level at 1 mg/kg, ip; assay type: functional, organism-based
Mus musculus [6] = assay: Suppression of ANIT-induced cholestatic liver injury in mouse assessed as effect on AST level at 1 mg/kg, ip; assay type: functional, organism-based
Mus musculus [7] = assay: Suppression of ANIT-induced cholestatic liver injury in mouse assessed as effect on ALP level at 1 mg/kg, ip; assay type: functional, organism-based
[8] = target: Mas-related G-protein coupled receptor member X4 (Homo sapiens) (UniProt Q96LA9); assay: Antagonist activity at recombinant human MrgprX4 expressed in HEK293 cells assessed as blockade of bilirubin-induced inositol phosphate accumulation incubated for 1 hr at 37 degC followed by incubation for 30 mins at room temperature before bilirubin addition by HTRF assay relative to control; assay type: functional, cell-based
[9] = target: Mas-related G-protein coupled receptor member X4 (Homo sapiens) (UniProt Q96LA9); assay: Inverse agonist activity at recombinant human MrgprX4 expressed in HEK293 cells assessed as reduction in inositol phosphate accumulation incubated for 1 hr at 37 degC followed by incubation for 30 mins at room temperature by HTRF assay relative to baseline; assay type: functional, cell-based

Mas-related G-protein coupled receptor member X4 (Homo sapiens), sequence (Q96LA9 whole entry): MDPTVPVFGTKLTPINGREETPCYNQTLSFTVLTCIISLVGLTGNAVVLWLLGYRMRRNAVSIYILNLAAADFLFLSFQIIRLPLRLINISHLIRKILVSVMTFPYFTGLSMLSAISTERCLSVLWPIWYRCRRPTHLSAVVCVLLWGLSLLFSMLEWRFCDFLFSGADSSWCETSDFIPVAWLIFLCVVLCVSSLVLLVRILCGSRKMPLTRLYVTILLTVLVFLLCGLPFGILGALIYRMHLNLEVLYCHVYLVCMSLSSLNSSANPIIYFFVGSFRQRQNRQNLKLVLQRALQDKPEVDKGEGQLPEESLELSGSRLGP

| SMILES | inhibition [8] [%] | fold change (FC) [9] | further results |
| --- | --- | --- | --- |
| CC(C)(C)OC(=O)N[C@@H](CCC(N)=O)C(=O)N[C@H](Cc1cn(C=O)c2ccccc12)C(=O)N[C@@H](Cc1ccccc1)C(=O)OCc1ccccc1 (Boc-Gln-[dW](For)-Phe-OBn) | – | – | Activity (Mus musculus [1]): Active; Activity (Mus musculus [2]): inactive; Activity (Mus musculus [3]): Active; Activity (Mus musculus [4]): inactive; Activity (Mus musculus [5]): inactive; Activity (Mus musculus [6]): inactive; Activity (Mus musculus [7]): inactive |
| Cc1c(C(=O)NCc2ccccc2C(F)(F)F)ncn1Cc1ccc(Cl)cc1 | 85 | 3 | – |

More lines, main results first:

| inhibition [8] [%] | fold change (FC) [9] | SMILES | further results |
| --- | --- | --- | --- |
| 70 to 85 | 2 to 3 | Nc1nc2ccccc2n1CCOc1ccccc1Cl | – |
| 85 | 2 to 3 | O=C(NCc1cc2ccccc2[nH]1)c1cc(-c2ccccn2)nc2ccc(Br)cc12 | – |
| 85 | 3 | Cc1nc(-c2ccnn2Cc2ccc(Cl)cc2)[nH]c1-c1ccccc1 | – |
